Reference: PMC10712727, “Safety, Tolerability, and Pharmacokinetics of Senaparib, a Novel PARP1/2 Inhibitor, in Chinese Patients With Advanced Solid Tumors: A Phase I Trial” (The Oncologist, 2023)

System: patients with advanced solid tumors
Experiment: Safety: treatment-emergent and senaparib-related adverse events graded per NCI CTCAE v4.03
Type: in vivo
Conditions: TEAE
Experimental: This phase I, open-label, multicenter, dose-escalation, and dose-expansion study was conducted at three national clinical institutions in China. […] At baseline, all patients enrolled in the dose-escalation phase had to have at least one evaluable lesion, and those in the dose-expansion period had to have at least one measurable lesion, according to Response Evaluation Criteria in Solid Tumors version 1.1 (RECIST v1.1).[16] Entry to the dose-expansion cohort required the presence of a BRCA mutation, with the exception of patients with ovarian carcinoma, fallopian tube carcinoma, and primary peritoneal carcinoma. Full study eligibility criteria are provided in Supplementary Table S1.
Dose escalation was conducted using a modified Fibonacci 3 + 3 method (Supplementary Fig. S1).[17] Patients were administered oral senaparib from a planned starting dose of 2 mg once daily (QD), with preliminary dose escalation to 120 mg via nine dose groups, in order of their entry into the study. At a given dose level, each patient received a single dose of senaparib followed by a 7-day washout period. They then entered a continuous dosing period to confirm the safety and PK profile, in which they received senaparib QD from day 1 to day 21 of each 3-week cycle. Progression to the next higher dose required approval from the Data Safety Monitoring Committee (DSMC) upon review of the safety and PK data of the previous dose. A 50-mg twice-daily (BID) dosing group was added (planned enrollment, n = 6 patients) based on a DSMC review of the safety, PK, and efficacy analysis of the completed QD dose groups in the phase I clinical trial of senaparib dose escalation in Australia (NCT03507543), which commenced prior to the start of this trial.
The dose-expansion period included 3 populations: dose groups in which at least one patient achieved complete response (CR) or partial response (PR) per RECIST v1.1[16] and 1 dose group higher (evaluated for safety), as well as the dose group at the maximum tolerated dose (MTD)/recommended phase II dose (RP2D). Each of these groups included those patients in the respective dose-escalation group plus a planned additional 10 patients (approximately 20 patients in the MTD/RP2D group) with BRCA^mut+ solid tumors (ovarian, breast, or prostate cancer were preferred, and ovarian cancer could be BRCA wild type). Patients received senaparib monotherapy orally QD or BID (50-mg dose only) over each 3-week cycle until disease progression or unacceptable toxicity.
DLTs were predefined toxicities (Supplementary Table S2) recorded over the 7 days following the single-dose administration of senaparib and during the first treatment cycle (day 1-day 21) for each dose group in the dose-escalation period only. The MTD was defined as the maximum dose at which ≤1/6 patients experienced a DLT. Senaparib PK parameters were derived from blood samples collected from patients after the single administration, and at regular intervals during the first cycle of the dose-escalation and dose-expansion periods. Plasma concentrations of senaparib were determined using high-performance liquid chromatography-tandem mass spectrometry. Tumor response was assessed every 6 weeks per RECIST v1.1,[16] recording objective response rate (ORR), disease control rate (DCR), duration of response (DOR), and progression-free survival (PFS) by dose level for all patients and for those harboring BRCA^mut+ tumors.

O=C(c1cc(Cn2c(=O)[nH]c(=O)c3c(F)cccc32)ccc1F)N1CCN(c2ncccn2)CC1 [Senaparib]
Vomiting, Gr≥3 (10 mg QD n = 3): 0 n (%)
WBC decreased, All (10 mg QD n = 3): 1 (33.3) n (%)
WBC decreased, Gr≥3 (10 mg QD n = 3): 0 n (%)
ALT increased, All (20 mg QD n = 5): 0 n (%)
ALT increased, Gr≥3 (20 mg QD n = 5): 0 n (%)
AST increased, All (20 mg QD n = 5): 0 n (%)
AST increased, Gr≥3 (20 mg QD n = 5): 0 n (%)
Abdominal distension, All (20 mg QD n = 5): 1 (20.0) n (%)
Abdominal distension, Gr≥3 (20 mg QD n = 5): 0 n (%)
Anemia (incl. hemoglobin decreased), All (20 mg QD n = 5): 1 (20.0) n (%)
Anemia (incl. hemoglobin decreased), Gr≥3 (20 mg QD n = 5): 1 (20.0) n (%)
Appetite decreased, All (20 mg QD n = 5): 1 (20.0) n (%)
Appetite decreased, Gr≥3 (20 mg QD n = 5): 0 n (%)
Asthenia, All (20 mg QD n = 5): 1 (20.0) n (%)
Asthenia, Gr≥3 (20 mg QD n = 5): 0 n (%)
Blood bilirubin increased, All (20 mg QD n = 5): 0 n (%)
Blood bilirubin increased, Gr≥3 (20 mg QD n = 5): 0 n (%)
Blood creatinine increased, All (20 mg QD n = 5): 1 (20.0) n (%)
Blood creatinine increased, Gr≥3 (20 mg QD n = 5): 0 n (%)
Hypokalemia, All (20 mg QD n = 5): 1 (20.0) n (%)
Hypokalemia, Gr≥3 (20 mg QD n = 5): 0 n (%)
Hyponatremia, All (20 mg QD n = 5): 0 n (%)
Hyponatremia, Gr≥3 (20 mg QD n = 5): 0 n (%)
Nausea, All (20 mg QD n = 5): 1 (20.0) n (%)
Nausea, Gr≥3 (20 mg QD n = 5): 0 n (%)
Neutrophil count decreased, All (20 mg QD n = 5): 0 n (%)
Neutrophil count decreased, Gr≥3 (20 mg QD n = 5): 0 n (%)
Pain in extremity, All (20 mg QD n = 5): 1 (20.0) n (%)
Pain in extremity, Gr≥3 (20 mg QD n = 5): 1 (20.0) n (%)
Platelet count decreased, All (20 mg QD n = 5): 1 (20.0) n (%)
Platelet count decreased, Gr≥3 (20 mg QD n = 5): 0 n (%)
Protein in urine, All (20 mg QD n = 5): 1 (20.0) n (%)
Protein in urine, Gr≥3 (20 mg QD n = 5): 0 n (%)
Vomiting, All (20 mg QD n = 5): 0 n (%)
Vomiting, Gr≥3 (20 mg QD n = 5): 0 n (%)
WBC decreased, All (20 mg QD n = 5): 1 (20.0) n (%)
WBC decreased, Gr≥3 (20 mg QD n = 5): 0 n (%)
ALT increased, All (40 mg QD n = 3): 0 n (%)
ALT increased, Gr≥3 (40 mg QD n = 3): 0 n (%)
AST increased, All (40 mg QD n = 3): 0 n (%)
AST increased, Gr≥3 (40 mg QD n = 3): 0 n (%)
Abdominal distension, All (40 mg QD n = 3): 0 n (%)
Abdominal distension, Gr≥3 (40 mg QD n = 3): 0 n (%)
Anemia (incl. hemoglobin decreased), All (40 mg QD n = 3): 1 (33.3) n (%)
Anemia (incl. hemoglobin decreased), Gr≥3 (40 mg QD n = 3): 0 n (%)
Appetite decreased, All (40 mg QD n = 3): 0 n (%)
Appetite decreased, Gr≥3 (40 mg QD n = 3): 0 n (%)
Asthenia, All (40 mg QD n = 3): 1 (33.3) n (%)
Asthenia, Gr≥3 (40 mg QD n = 3): 0 n (%)
Blood bilirubin increased, All (40 mg QD n = 3): 0 n (%)
Blood bilirubin increased, Gr≥3 (40 mg QD n = 3): 0 n (%)
Blood creatinine increased, All (40 mg QD n = 3): 1 (33.3) n (%)
Blood creatinine increased, Gr≥3 (40 mg QD n = 3): 0 n (%)
Hypokalemia, All (40 mg QD n = 3): 0 n (%)
Hypokalemia, Gr≥3 (40 mg QD n = 3): 0 n (%)
Hyponatremia, All (40 mg QD n = 3): 0 n (%)
Hyponatremia, Gr≥3 (40 mg QD n = 3): 0 n (%)
Nausea, All (40 mg QD n = 3): 0 n (%)
Nausea, Gr≥3 (40 mg QD n = 3): 0 n (%)
Neutrophil count decreased, All (40 mg QD n = 3): 0 n (%)
Neutrophil count decreased, Gr≥3 (40 mg QD n = 3): 0 n (%)
Pain in extremity, All (40 mg QD n = 3): 0 n (%)
Pain in extremity, Gr≥3 (40 mg QD n = 3): 0 n (%)
Platelet count decreased, All (40 mg QD n = 3): 0 n (%)
Platelet count decreased, Gr≥3 (40 mg QD n = 3): 0 n (%)
Protein in urine, All (40 mg QD n = 3): 0 n (%)
Protein in urine, Gr≥3 (40 mg QD n = 3): 0 n (%)
Vomiting, All (40 mg QD n = 3): 0 n (%)
Vomiting, Gr≥3 (40 mg QD n = 3): 0 n (%)
WBC decreased, All (40 mg QD n = 3): 0 n (%)
WBC decreased, Gr≥3 (40 mg QD n = 3): 0 n (%)
ALT increased, All (50 mg BID n = 4): 1 (25.0) n (%)
ALT increased, Gr≥3 (50 mg BID n = 4): 0 n (%)
AST increased, All (50 mg BID n = 4): 1 (25.0) n (%)
AST increased, Gr≥3 (50 mg BID n = 4): 0 n (%)
Abdominal distension, All (50 mg BID n = 4): 0 n (%)
Abdominal distension, Gr≥3 (50 mg BID n = 4): 0 n (%)
Anemia (incl. hemoglobin decreased), All (50 mg BID n = 4): 3 (75.0) n (%)
Anemia (incl. hemoglobin decreased), Gr≥3 (50 mg BID n = 4): 2 (50.0) n (%)
Appetite decreased, All (50 mg BID n = 4): 0 n (%)
Appetite decreased, Gr≥3 (50 mg BID n = 4): 0 n (%)
Asthenia, All (50 mg BID n = 4): 1 (25.0) n (%)
Asthenia, Gr≥3 (50 mg BID n = 4): 0 n (%)
Blood bilirubin increased, All (50 mg BID n = 4): 0 n (%)
Blood bilirubin increased, Gr≥3 (50 mg BID n = 4): 0 n (%)
Blood creatinine increased, All (50 mg BID n = 4): 0 n (%)
Blood creatinine increased, Gr≥3 (50 mg BID n = 4): 0 n (%)
Hypokalemia, All (50 mg BID n = 4): 0 n (%)
Hypokalemia, Gr≥3 (50 mg BID n = 4): 0 n (%)
Hyponatremia, All (50 mg BID n = 4): 3 (75.0) n (%)
Hyponatremia, Gr≥3 (50 mg BID n = 4): 1 (25.0) n (%)
Nausea, All (50 mg BID n = 4): 2 (50.0) n (%)
Nausea, Gr≥3 (50 mg BID n = 4): 0 n (%)
Neutrophil count decreased, All (50 mg BID n = 4): 0 n (%)
Neutrophil count decreased, Gr≥3 (50 mg BID n = 4): 0 n (%)
Pain in extremity, All (50 mg BID n = 4): 0 n (%)
Pain in extremity, Gr≥3 (50 mg BID n = 4): 0 n (%)
Platelet count decreased, All (50 mg BID n = 4): 1 (25.0) n (%)
Platelet count decreased, Gr≥3 (50 mg BID n = 4): 0 n (%)
Protein in urine, All (50 mg BID n = 4): 0 n (%)
Protein in urine, Gr≥3 (50 mg BID n = 4): 0 n (%)
Vomiting, All (50 mg BID n = 4): 2 (50.0) n (%)
Vomiting, Gr≥3 (50 mg BID n = 4): 0 n (%)
WBC decreased, All (50 mg BID n = 4): 2 (50.0) n (%)
WBC decreased, Gr≥3 (50 mg BID n = 4): 0 n (%)
ALT increased, All (60 mg QD n = 5): 0 n (%)
ALT increased, Gr≥3 (60 mg QD n = 5): 0 n (%)
AST increased, All (60 mg QD n = 5): 0 n (%)
AST increased, Gr≥3 (60 mg QD n = 5): 0 n (%)
Abdominal distension, All (60 mg QD n = 5): 2 (40.0) n (%)
Abdominal distension, Gr≥3 (60 mg QD n = 5): 0 n (%)
Anemia (incl. hemoglobin decreased), All (60 mg QD n = 5): 0 n (%)
Anemia (incl. hemoglobin decreased), Gr≥3 (60 mg QD n = 5): 0 n (%)
Appetite decreased, All (60 mg QD n = 5): 1 (20.0) n (%)
Appetite decreased, Gr≥3 (60 mg QD n = 5): 0 n (%)
Asthenia, All (60 mg QD n = 5): 1 (20.0) n (%)
